The source of these data is patent EP3568131B1, “COMPOSITION COMPRISING 7-HYDROXYMATAIRESINOL FOR USE IN THE TREATMENT AND IN THE PREVENTION OF TRICHOLOGICAL DISEASES OF INFLAMMATORY AND/OR HORMONAL ORIGIN” (Sinerga Group S.r.l., priority 2017, dated 2018).

Where two headings read alike, the source gives them in different places.

The nature of series [1]: MTT cytotoxicity test on reconstituted 3D epidermis. Format: cell-based. To be noted: human. As for the experimental part:
• Cytotoxicity through the MTT test at the end of incubation: cell survival test with 3D human epidermis reconstituted in vitro for the evaluation of the cytotoxic potential caused by the sample. • Inhibition of the release of cellular mediators of inflammation (IL-1α) after stress induced with SLS.
(§1) The cell model used for in vitro tests is represented by a three-dimensional system of reconstituted human epidermis in vitro.
(§2) This three-dimensional cellular model is made up of normal human primary keratinocytes, left to grow in vitro in order to simulate the multi-layered architecture of the human epidermis, with a well-differentiated stratum corneum. The model was purchased from CELLSYSTEMS (Troisdorf, batch 100-AE1818-1).
(§3) The skin irritation characterized by the release of IL-1α was caused by an epidermis pre-treatment for 60 minutes with SLS 0.25%.
(§4) Subsequently, 30µl of diluted sample were placed on two units and the exposure was extended for 24 hours at 37°C, 5% CO2. The sample was diluted to 0.25% in phosphate buffer.
(§5) As a negative control, two units of epidermis were treated with phosphate buffer (PBS), as a positive control two units were treated for 60' with 0.25% SLS. The test was carried out in duplicate.
At the end of the exposure, the sample and the references were removed by washing with phosphate buffer (PBS) and the cell viability was assessed.
The epidermis was incubated for 3h at 37°C with a lmg/ml solution of MTT (3- [4,5-dimethylthiazol-2-yl] -2,5-diphenyl tetrazolium bromide).
Then the solution was removed and replaced with isopropanol with subsequent 2 h incubation at room temperature.
Two aliquots of each sample were transferred to a 96-well plate for reading the absorbance, which was carried out at the wavelength of 570 nm, with a colorimeter (Tecan, model Sunrise remote) equipped with a plate reader.
The result was expressed as a cellular viability in percent according to the formula: % cell viability = [OD (570 nm) tested sample/OD (570 nm) CN] x 100
In general terms: Tetrazolium dyes change colour on reduction, which living cells bring about.

Series [2] deals with human fibroblasts of the dermal papilla (HHDPC). Kind of series: Total protein dosage (Bradford method). The following applies: for activation at 1000 µg/mL: 1 mg/ml of 5% glycerine solution. Format: cell-based. The source says:
(§6) The purpose of the test is quantitatively establishing the effects of 7-hydroxymatairesinol (HMR) on cell proliferation and on the synthesis of total proteins in human fibroblasts of the dermal papilla through the cell viability test (MTT test) after cycle synchronization, and establishing the protein dosage at different exposure times and at different sub-toxic sample dilutions.
(§7) Dermal papilla cells derived from human hair follicle (HHDPC: human hair dermal papilla cells) with fibroblastic morphology. The cells are cultured in DMEM containing 10% FBS and antibiotics.
(§8) The cells were seeded in 24-well plates and left to grow for 24h at 37°C and 5% CO2. Then they were deprived of the serum 6 hours before the experiment for cell cycle synchronization.
(§9) After 6 hours, fresh culture medium was added without serum but containing the sample to be tested in order to reach different final dilutions. The 5% glycerine-solubilized sample was dissolved in the culture medium. The test was carried out in triplicate.
(§10) After 24 and 48 hours of exposure, the MTT cell viability test and the total protein test using the Bradford method^1 were carried out on separate plates. Untreated cells were used as a negative control (CN), while cells treated with human insulin were used as a positive control (CP).
The protein dosage was carried out according to the Bradford method. At the end of the treatment, the cells were washed with sterile PBS and lysed by treatment with purified water at 4°C. The colouring reagent was added to the lysate. A standard curve of albumin titrated to 20, 40, 80 and 100 µg/ml was prepared in a similar manner.
Then 200 µl of each sample, controls and standards, each in triplicate, were transferred to a 96-well plate. The reading was carried out with a colorimeter (Tecan, Sunrise) equipped with a plate reader, at 595 nm.
To quantify proteins, a standard albumin calibration curve was drawn and sample concentrations were calculated using the interpolation curve formula and relative absorbances. The averages of the individual data were then calculated, and for each sample the percentage of increase in protein synthesis was calculated, with respect to the negative control: % protein synthesis increment = (μg/mlsampleprotein/μg/mlCN)∗100 [formula]

For series [3], the system named is human hair dermal papilla cells (HHDPC). Kind of series: MTT cell viability test after cell cycle synchronization (cell proliferation). The format is cell-based. The following applies: for viability at 200 µg/mL / viability at 1000 µg/mL: Homo sapiens, HHDPC, vs negative control; for viability at 200 µg/mL: 0.2 mg/ml of 5% glycerine solution; for viability at 1000 µg/mL: 1 mg/ml of 5% glycerine solution.
Source text: as §6, §7, §8, §9, §10
This method was originally developed by Mossman^2. After 24 and 48 hours of treatment, cell viability was evaluated by incubating the cells with MTT (3-[4,5-dimethylthiazol-2-yl]-2,5-diphenyl tetrazolium bromide) for 2 hours.
The precipitated formazan crystals were then extracted using isopropanol or DMSO and were spectrophotometrically quantified at 570 nm against 650 nm. The absorbance was read with a colorimeter (Tecan, model Sunrise remote) equipped with a plate reader subtracting the reading of the bottom.
The cell viability was expressed as a percentage according to the formula: % of cell viability = [OD(570nm−650nm)testedproduct/OD(570nm−650nm)CN] × 100 [formula] OD: Optical density

Series [4] deals with IL-1α. Kind of series: IL-1α release (ELISA) after SLS-induced stress on reconstituted epidermis. Format: cell-based, human. The following applies: for IL-1α % inhibition: vs positive control.
Source text: The study concerns the in vitro evaluation of the anti-inflammatory potential of 7-hydroxymatairesinol against the inflammatory reaction induced by moderate irritants such as sodium lauryl sulphate (SLS), using a model of human skin cells grown in vitro in multilayer.
The inhibition of the cytokine IL-1α release caused by SLS is investigated by specific ELISA tests in the presence of the tested substance compared to untreated skin samples.
as §1, §2, §3, §4, §5
For the analysis of IL-1α, samples of culture medium were taken at 6 and 24 hours. The maintenance medium of the units treated with PBS and the medium of two non-irritated skin units treated only with the sample were taken as negative control, whereas the culture medium of two skin units treated with the 0.25% SLS solution was used as a positive control.
In this study, IL-1α was dosed using the direct-type ELISA (Enzyme-linked immunosorbent assay) method, i.e. the colour development was directly proportional to the amount of cytokines in the culture medium.
The reading was carried out at 450 nm. The sensitivity limit of this test was less than 10 pg/ml.
The IL-1α concentration was determined using a standard curve as a reference. The inhibition of IL1-α release was determined as: % IL-1α inhibition: 100- (pg/ml IL-1α released from the irritated sample/pg/ml IL-1α positive control)* 100
For orientation: In an ELISA, binding on a coated surface is turned into a signal by an enzyme label.

In series [5] the test system is 5α-reductase. Description: Gene expression of 5α-reductase by qRT-PCR in testosterone-treated dermal papilla cells. Format: cell-based. To be noted: Homo sapiens, HHDPC, 48 h. The source says: Measurement of the gene expression level of 5α-reductase by means of Real Time Polymerase Chain Reaction (qRT-PCR) in human cells of the dermal papilla with and without treatment with the sample. The purpose of the test is to highlight and quantify changes in gene expression of 5α-reductase levels in cell cultures exposed to treatment with the tested substance compared to controls of the same untreated cells. This enzyme is expressed in skin melanocytes, fibroblasts and keratinocytes and turns testosterone into di-hydro-testosterone, a key metabolite implicated in various skin disorders such as acne vulgaris, hirsutism, seborrhoea and androgenetic alopecia. After birth, the 5α-reductase enzyme (type 1) is expressed in multiple body areas, including liver, skin, scalp and prostate. 5α-reductase (type 2) is expressed in prostate, seminal vesicles, epididymis, liver, and, to a lesser extent, scalp and skin. In this test, the cells are previously treated with testosterone to induce 5α-reductase production and are exposed to various test substances for 48 hours. A titrated extract of Serenoa repens, a known pharmacologically active compound used to treat benign prostatic hyperplasia, is used as a positive control. The analysis is carried out through RT-qPCR (Real Time Quantitative Polymerase Chain Reaction), a very sensitive method for the detection and quantification of messenger RNA coding for the protein in analysis and therefore for the corresponding gene activation. RT-qPCR measures the fluorescence emitted by the amplicons produced during each PCR cycle. A culture of human dermal papilla (HHDPC) cells was used. The cells were grown in MEM containing 10% FBS and antibiotics. The cells were seeded in 12-well plates for 24 hours. Then they were treated for 24 hours with 10 ng/ml of testosterone. After this step, fresh culture medium containing the sample to be tested was added. The sample was dissolved directly in the culture medium. The concentrations of the sample to be tested were selected based on preliminary cytotoxicity. […] After precipitation and centrifugation (30' at 12,000 rpm at 4°C), the RNA was resuspended in 20 µl of sterile water and its concentration was determined by spectrophotometry. […] Changes in the gene expression profile are analysed by RT-qPCR using Syber Green as a fluorescent molecule. […] The detection of the fluorescence emitted in each cycle allows monitoring the PCR reaction during the exponential phase, namely where the first significant increases in the PCR product are related to the initial amount of template. […] Subsequently, data can be expressed as "fold change", namely as a ratio with respect to control (a) or as a percentage with respect to control (b). […]
(In qPCR the cycle at which signal appears reflects the starting amount.)

Where [6] appears, read: increase on fibroblasts of human dermal papilla compared to untreated cells.
Where [7] appears, read: 6 h, sample 0.25% after SLS 0.25% pre-treatment.
The mark [8] stands for this setting: 24 h, sample 0.25% after SLS 0.25% pre-treatment.

Turning to `COc1cc(C[C@H]2C(=O)OC[C@@H]2[C@H](O)c2ccc(O)c(OC)c2)ccc1O` [HMR, 7-hydroxymatairesinol], the viability at 24 h in series [1] (sample 0.25% in phosphate buffer alone, 24 hours exposure, read-out: % average cell viability (ds)) is 78.2%; in series [1] (sample 0.25%, 24 hours, after 60 minutes pre-treatment with SLS 0.25%, read-out: % average cell viability (ds)), 55.9%. For the same molecule, in series [2] (Homo sapiens, Fibroblast, HHDPC, 24 h, 0.2 mg/ml of 5% glycerine solution, increase vs negative control, read-out: % protein synthesis), the activation at 200 µg/mL was determined as 10.4%. Moreover, the activation at 1000 µg/mL in series [2] (Homo sapiens, Fibroblast, HHDPC, 24 h, increase vs negative control, read-out: % protein synthesis) was 24.5%; in series [2] (Homo sapiens, Fibroblast, HHDPC, 48 h, increase vs negative control, read-out: % protein synthesis), 16.8%. In series [2] (setting [6]), this molecule yielded a protein synthesis of 24%. Besides, the viability at 200 µg/mL came to 110% in series [3] (24 h) and 119% in series [3] (48 h). Besides, the viability at 1000 µg/mL was 99.7% in series [3] (24 h) and 105% in series [3] (48 h). In series [3] (setting [6]), the cell proliferation is recorded as 19%. Besides, the “IL-1α Mean” value amounted to 19.72 pg/mL in series [4] (setting [7]); 18.07 pg/mL in series [4] (6 h, sample 0.25% alone, non-irritated epidermis); 97.70 pg/mL in series [4] (setting [8]); 26.40 pg/mL in series [4] (24 h, sample 0.25% alone, non-irritated epidermis). Also, the results for the IL-1α % inhibition in series [4] (setting [7]) and in series [4] (setting [8]) were 13.94% and 51.32%, respectively. In series [5] (0.2 mg/ml of solution (stated as 0.01% HMR), vs untreated control, read-out: % 5a-reductase (ds) expression), the mrna remaining at 0.01 % came out at 90.9%. Moreover, the inhibition at 0.01 % in series [5] (0.2 mg/ml of solution (stated as 0.01% HMR), vs untreated control, read-out: % reduction) is 9.07%. Further, in series [5] (1 mg/ml of solution (stated as 0.05% HMR), 5α-reductase mRNA vs untreated control, read-out: % reduction), the inhibition at 0.05 % was 57.1%. In series [5] (1 mg/ml of solution (stated as 0.05% HMR), vs untreated control, read-out: % 5a-reductase (ds) expression), the mrna remaining at 0.05 % was 42.9%.
Regarding `CCCCCCCCCCCCOS(=O)(=O)[O-].[Na+]` [SLS, sodium lauryl sulphate, reference compound], the viability at 1 h in series [1] (SLS 0.25% for 60 minutes, positive control, read-out: % average cell viability (ds)) is 50%. Moreover, the viability in series [1] (positive control (SLS 0.25%), test acceptability table) amounted to 50%. Besides, the “IL-1α Mean” value in series [4] (6 h, SLS 0.25% for 60 minutes, positive control) was determined as 22.92 pg/mL; in series [4] (24 h, SLS 0.25% for 60 minutes, positive control) it was 200.72 pg/mL.

As usually defined, the viability is a read-out of living cells in per cent, often relative to untreated cells.
